Assay results published in ChEMBL document CHEMBL6083269, “Design, synthesis, in vitro and in vivo trypanosomaticidal efficacy of novel 5-nitroindolylazines” (Eur J Med Chem, 2024).

Tests used:
[1] = Selectivity index, ratio of IC50 for african green monkey Vero cells to IC50 for Leishmania donovani; type: toxicity, cell-based; conditions: read-out: Ratio IC50
[2] = test system: Trypanosoma brucei gambiense; test: Trypanocidal activity against Trypanosoma brucei gambiense IL1922 incubated for 72 hrs by CellTiter-Glo reagent based […] analysis; type: functional, organism-based; conditions: IL1922, 72 h
[3] = test system: Trypanosoma brucei brucei; test: Trypanocidal activity against Trypanosoma brucei brucei GUTat3.1 incubated for 72 hrs by CellTiter-Glo reagent based […] analysis; type: functional, organism-based; conditions: GUTat3.1, 72 h
[4] = test system: Trypanosoma equiperdum; test: Trypanocidal activity against Trypanosoma equiperdum IVM-t1 incubated for 72 hrs by CellTiter-Glo reagent based […] analysis; type: functional, organism-based; conditions: IVM-t1, 72 h
[5] = test system: Leishmania major; test: Antileishmanial activity against Leishmania major NIH-S (MHOM/SN/74/Seidman) amastigote infected in THP-1 cells assessed as inhibition of parasite growth incubated for 72 hrs by resazurin dye based plate reader assay; type: functional, organism-based; conditions: THP-1, 72 h
[6] = test system: Leishmania donovani; test: Leishmanicidal activity against Leishmania donovani 9515 (MHOM/IN/95/9151) amastigote infected in THP-1 cells incubated for 72 hrs by resazurin dye based plate reader assay; type: functional, organism-based; conditions: THP-1, 72 h
[7] = Selectivity index, ratio of IC50 for human THP-1 cells to IC50 for leishmanicidal activity against Leishmania donovani 9515 (MHOM/IN/95/9151) amastigote; type: toxicity, cell-based; conditions: read-out: Ratio IC50
[8] = Selectivity index, ratio of IC50 for human THP-1 cells to IC50 for Leishmania major IR-173 (MHO-M/IR/-173) promastigote; type: toxicity, cell-based; conditions: read-out: Ratio IC50
[9] = test system: Leishmania donovani; test: Antileishmanial activity against Leishmania donovani 9515 (MHOM/IN/95/9151) promastigote incubated for 48 hrs by resazurin dye based plate reader assay; type: functional, organism-based
[10] = Cytotoxicity against green monkey Vero cells incubated for 48 hrs by resazurin dye based assay; type: toxicity, cell-based; conditions: African green monkey (Chlorocebus sabaeus)
[11] = test system: Leishmania donovani; test: Antileishmanial activity against Leishmania donovani 9515 (MHOM/IN/95/9151) amastigote infected in THP-1 cells assessed as inhibition of parasite growth incubated for 72 hrs by resazurin dye based plate reader assay; type: functional, organism-based; conditions: THP-1, 72 h
[12] = test system: Trypanosoma brucei rhodesiense; test: Trypanocidal activity against Trypanosoma brucei rhodesiense IL1501 incubated for 72 hrs by CellTiter-Glo reagent based […] analysis; type: functional, organism-based; conditions: IL1501, 72 h
[13] = Selectivity index, ratio of IC50 for african green monkey Vero cells to IC50 for leishmanicidal activity against Leishmania donovani 9515 (MHOM/IN/95/9151) amastigote; type: toxicity, cell-based; conditions: read-out: Ratio IC50
[14] = Selectivity index, ratio of IC50 for african green monkey Vero cells to IC50 for Leishmania major IR-173 (MHO-M/IR/-173) promastigote; type: toxicity, cell-based; conditions: read-out: Ratio IC50
[15] = test system: Leishmania major; test: Leishmanicidal activity against Leishmania major NIH-S (MHOM/SN/74/Seidman) amastigote incubated for 48 hrs by resazurin dye based plate reader assay; type: functional, organism-based
[16] = Selectivity index, ratio of IC50 for human THP-1 cells to IC50 for static antileishmanial activity against Leishmania donovani 9515 (MHOM/IN/95/9151) amastigote; type: toxicity, cell-based; conditions: read-out: Ratio IC50
[17] = Selectivity index, ratio of IC50 for african green monkey Vero cells to IC50 for static antileishmanial activity against Leishmania donovani 9515 (MHOM/IN/95/9151) amastigote; type: toxicity, cell-based; conditions: read-out: Ratio IC50
[18] = test system: Trypanosoma evansi; test: Trypanocidal activity against Trypanosoma evansi Tansui incubated for 72 hrs by CellTiter-Glo reagent based […] analysis; type: functional, organism-based
[19] = Cytotoxicity against human […]-differentiated THP-1 cells incubated for 72 hrs by resazurin dye based assay; type: toxicity, cell-based
[20] = test system: Trypanosoma congolense; test: Trypanocidal activity against Trypanosoma congolense IL3000 incubated for 72 hrs by CellTiter-Glo reagent based […] analysis; type: functional, organism-based; conditions: IL3000, 72 h
[21] = test system: Leishmania major; test: Antileishmanial activity against Leishmania major IR-173 (MHO-M/IR/-173) promastigote incubated for 48 hrs by resazurin dye based plate reader assay; type: functional, organism-based
[22] = Cytotoxicity against MDBK cells incubated for 72 hrs by CCK8 assay; type: toxicity, cell-based, Bos taurus; conditions: cattle; for CC50 at 72 h: MDBK cells
[23] = Selectivity index, ratio of IC50 for african green monkey Vero cells to IC50 for Leishmania donovani 9515 (MHOM/IN/95/9151) promastigote; type: toxicity, cell-based; conditions: read-out: Ratio IC50
[24] = Selectivity index, ratio of CC50 for MDBK to IC50 for Trypanosoma brucei rhodesiense IL1501; type: toxicity, cell-based; conditions: cattle, MDBK cells; read-out: Ratio CC50/IC50
[25] = Selectivity index, ratio of CC50 for MDBK to IC50 for Trypanosoma brucei brucei GUTat3.1; type: toxicity, cell-based; conditions: cattle, MDBK cells; read-out: Ratio CC50/IC50
[26] = Selectivity index, ratio of IC50 for human THP-1 cells to IC50 for Leishmania donovani 9515 (MHOM/IN/95/9151) promastigote; type: toxicity, cell-based; conditions: read-out: Ratio IC50
[27] = Selectivity index, ratio of CC50 for MDBK to IC50 for Trypanosoma congolense IL3000; type: toxicity, cell-based; conditions: cattle, MDBK cells; read-out: Ratio CC50/IC50
[28] = Selectivity index, ratio of CC50 for MDBK to IC50 for Trypanosoma brucei gambiense IL1922; type: toxicity, cell-based; conditions: cattle, MDBK cells; read-out: Ratio CC50/IC50
[29] = Selectivity index, ratio of CC50 for MDBK to IC50 for Trypanosoma evansi Tansui; type: toxicity, cell-based; conditions: cattle, MDBK cells; read-out: Ratio CC50/IC50
[30] = Selectivity index, ratio of CC50 for MDBK to IC50 for Trypanosoma equiperdum IVM-t1; type: toxicity, cell-based; conditions: cattle, MDBK cells; read-out: Ratio CC50/IC50

Compound | selectivity ratio [1] | IC50 [2] | IC50 [3] | IC50 [4] | IC50 [5] | IC50 [6] | selectivity ratio [7] | selectivity ratio [8] | IC50 [9] | IC50 at 48 h [10] | IC50 [11] | IC50 [12] | selectivity ratio [13] | selectivity ratio [14] | IC50 [15] | selectivity ratio [16] | selectivity ratio [17] | IC50 [18] | IC50 at 72 h [19] | IC50 [20] | further results
O=[N+]([O-])c1ccc(/C=N/N=C/c2ccc(OCc3ccccc3)cc2)o1 | 400 | – | – | – | – | – | – | – | – | – | – | – | – | – | – | – | – | – | – | – | –
C#CCn1cc(/C=N\N=C\c2ccco2)c2cc([N+](=O)[O-])ccc21 | – | > 78 µM | > 78 µM | > 78 µM | > 10 µM | 2580 nM | > 39 | 20 | > 10 µM | > 100 µM | 890 nM | > 78 µM | > 39 | 20 | > 10 µM | 112 | > 112 | > 78 µM | > 100 µM | > 78 µM | IC50 [21]: 4.9 µM; CC50 at 72 h [22]: > 312 µM
C#CCn1cc(/C=N/N=C\C=C(C)C)c2cc([N+](=O)[O-])ccc21 | – | 33.4 µM | 37.4 µM | 27 µM | – | 1030 nM | 90 | – | 10 µM | 80.3 µM | 530 nM | 34.7 µM | 78 | – | – | 175 | 152 | 39.6 µM | 92.6 µM | 28.3 µM | selectivity ratio [23]: 8; selectivity ratio [24]: 1.96; selectivity ratio [25]: 1.82; selectivity ratio [26]: 9; selectivity ratio [27]: 2.41; selectivity ratio [28]: 2.04; selectivity ratio [29]: 1.72; selectivity ratio [30]: 2.53; CC50 ([22]; mdbk, 72 h): > 325 µM
C#CCn1cc(\C=N/N=C/C=C/c2ccccc2)c2cc([N+](=O)[O-])ccc21 | – | > 70.2 µM | > 70.2 µM | > 70.2 µM | > 10 µM | 690 nM | 52 | 4 | > 10 µM | 24.5 µM | 340 nM | > 70.2 µM | 37 | 3 | > 10 µM | 75 | 75 | > 70.2 µM | 35.8 µM | 9.4 µM | selectivity ratio [27]: > 29.9; IC50 [21]: 8.08 µM; CC50 at 72 h [22]: 9.2 µM
O=Cc1ccc([N+](=O)[O-])o1 | 2 | – | – | – | – | – | – | – | – | – | – | – | – | – | – | – | – | – | – | – | –
